Reference: US10294202B2, “Pyrrolidinones as herbicides” (FMC Corporation, priority 2013, dated 2019)
Like-named read-outs stand apart in the source and are kept apart here.

Tests used:
ragweed = assay: Test C pre-/postemergence herbicide test; format: in vivo, Ambrosia elatior
Summary of the method: (§1)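 Test compounds, formulated in a surfactant-containing non-phytotoxic solvent blend, are applied to seeded loam/sand soil (preemergence) and to young plants at the 1- to 4-leaf stage in peat-based medium (postemergence). Plants stay 13 to 15 days under greenhouse conditions, then are scored visually relative to controls, 0 = no effect, 100 = complete control.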

nutsedge, yellow = assay: Test C pre-/postemergence herbicide test; format: in vivo, Cyperus esculentus
Summary of the method: as §1

morningglory = assay: Test C pre-/postemergence herbicide test; format: in vivo, Ipomoea coccinea
Summary of the method: as §1

corn [1] = assay: Test A pre-/postemergence herbicide test; format: in vivo, Zea mays
Summary of the method: (§2)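 Planted in loam–sand blend; treated the same day preemergence by directed soil spray, while separately grown plants at one- to two-leaf stage got postemergence spray. Compared visually with untreated controls after approximately 10 days; 100 means complete control.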

corn [2] = assay: Test C pre-/postemergence herbicide test; format: in vivo, Zea mays
Summary of the method: as §1

lambsquarters = assay: Test C pre-/postemergence herbicide test; format: in vivo, Chenopodium album
Summary of the method: as §1

pigweed = assay: Test A pre-/postemergence herbicide test; format: in vivo, Amaranthus retroflexus
Summary of the method: as §2

ryegrass, Italian = assay: Test C pre-/postemergence herbicide test; format: in vivo, Lolium multiflorum
Summary of the method: as §1

rice = assay: Test B flooded paddy test; format: in vivo, Oryza sativa; conditions: Flood, scale of 0 to 100 where 0 is no effect and 100 is complete control
Summary of the method: (§3)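 In-water application to pots flooded 3 cm deep, plants at 2-leaf stage. Held in greenhouse 13–15 days at constant flood depth. Scored 0–100 by eye against controls.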

johnsongrass = assay: Test C pre-/postemergence herbicide test; format: in vivo, Sorghum halepense
Summary of the method: as §1

ducksalad = assay: Test B flooded paddy test; format: in vivo, Heteranthera limosa; conditions: Flood, scale of 0 to 100 where 0 is no effect and 100 is complete control
Summary of the method: as §3

wheat = assay: Test A pre-/postemergence herbicide test; format: in vivo, Triticum aestivum
Summary of the method: as §2

[3] = Postemergence, 31 g ai/ha, scale 0 (no effect) to 100 (complete control)
[4] = Postemergence, 62 g ai/ha, scale 0 to 100 (0 no effect, 100 complete control)
[5] = Postemergence, 125 g ai/ha, scale 0 to 100 (0 no effect, 100 complete control)
[6] = Postemergence, 250 g ai/ha, scale 0 to 100 (0 no effect, 100 complete control)
[7] = Preemergence, 31 g ai/ha, scale 0 to 100, 0 is no effect and 100 is complete control
[8] = Preemergence, 62 g ai/ha, scale 0 to 100
[9] = Preemergence, 125 g ai/ha, scale 0 to 100 (0 no effect, 100 complete control)
[10] = Preemergence, 125 g ai/ha, visual rating on 0 to 100 scale (0 no effect, 100 complete control)
[11] = Preemergence, 62 g ai/ha, scale 0 to 100 (0 no effect, 100 complete control)
[12] = Postemergence, 125 g ai/ha, 0 to 100 scale, 0 is no effect, 100 is complete control

SMILES: O=C1NCC(c2ccc(C(F)(F)F)cc2)C1C(=O)Nc1cccc(F)c1F (centres unmarked) [Compound 80, N-(2,3-difluorophenyl)-2-oxo-4-[4-(trifluoromethyl)phenyl]-3-pyrrolidinecarboxamide]
- Plant response rating, Ragweed (ragweed; [3]): 30
- Plant response rating, Ragweed (ragweed; [4]): 30
- Plant response rating, Ragweed (ragweed; [5]): 30
- Plant response rating, Ragweed (ragweed; [6]): 30
- Plant response rating, Nutsedge, Yellow (nutsedge, yellow; [3]): 0
- Plant response rating, Nutsedge, Yellow (nutsedge, yellow; [4]): 0
- Plant response rating, Nutsedge, Yellow (nutsedge, yellow; [5]): 0
- Plant response rating, Nutsedge, Yellow (nutsedge, yellow; [6]): 0
- Nutsedge, Yellow plant response rating (nutsedge, yellow; [7]): 0
- Plant response rating, Nutsedge, Yellow (nutsedge, yellow; [8]): 0
- Plant response rating, Nutsedge, Yellow (nutsedge, yellow; [9]): 0
- Plant response rating (scale of 0 to 100), Nutsedge, Yellow (nutsedge, yellow; Preemergence, 250 g ai/ha): 10
- Plant response rating, Morningglory (morningglory; [3]): 0
- Plant response rating, Morningglory (morningglory; [4]): 5
- Plant response rating, Morningglory (morningglory; [5]): 5
- Plant response rating, Morningglory (morningglory; [6]): 5
- Morningglory plant response rating (morningglory; [7]): 0
- Plant response rating, Morningglory (morningglory; [8]): 0
- Plant response rating, Morningglory (morningglory; [9]): 20
- Plant response rating (scale of 0 to 100), Morningglory (morningglory; Preemergence, 250 g ai/ha): 20
- Corn plant response rating (corn [1]; [10]): 0
- Corn plant response rating (crop injury, 0 = no effect, 100 = complete kill) at 125 g/ha (corn [1]; Zea mays, post-emergence, 240 h, Postemergence, 125 g ai/ha, 0 to 100 scale, 0 no effect, 100 complete control): 30%
- Corn plant response rating (crop injury, 0 = no effect, 100 = complete kill) at 500 g/ha (corn [1]; Zea mays, post-emergence, 240 h, Postemergence, 500 g ai/ha, 0 to 100 scale (0 no effect, 100 complete control)): 60%
- Corn plant response rating (crop injury, 0 = no effect, 100 = complete kill) at 500 g/ha (corn [1]; Zea mays, pre-emergence, 240 h, preemergence, 500 g ai/ha, 0 to 100 scale): 0%
- Plant response rating, Corn (corn [2]; [3]): 0
- Plant response rating, Corn (corn [2]; [4]): 5
- Plant response rating, Corn (corn [2]; [5]): 5
- Plant response rating, Corn (corn [2]; [6]): 10
- Corn plant response rating (corn [2]; [7]): 0
- Plant response rating, Corn (corn [2]; [8]): 0
- Plant response rating, Corn (corn [2]; [9]): 0
- Plant response rating (scale of 0 to 100), Corn (corn [2]; Preemergence, 250 g ai/ha): 65
- Plant response rating, Lambsquarters (lambsquarters; [3]): 55
- Plant response rating, Lambsquarters (lambsquarters; [4]): 55
- Plant response rating, Lambsquarters (lambsquarters; [5]): 60
- Plant response rating, Lambsquarters (lambsquarters; [6]): 70
- Lambsquarters plant response rating (lambsquarters; [7]): 40
- Plant response rating, Lambsquarters (lambsquarters; [8]): 85
- Plant response rating, Lambsquarters (lambsquarters; [9]): 90
- Plant response rating (scale of 0 to 100), Lambsquarters (lambsquarters; Preemergence, 250 g ai/ha): 90
- pest or weed control at 125 g/ha (pigweed; Amaranthus retroflexus, post-emergence, 240 h, Postemergence, 125 g ai/ha, 0 to 100 scale, 0 no effect, 100 complete control, read-out: Plant response rating, Pigweed): 60%
- pest or weed control at 500 g/ha (pigweed; Amaranthus retroflexus, post-emergence, 240 h, Postemergence, 500 g ai/ha, 0 to 100 scale (0 no effect, 100 complete control), read-out: Plant response rating, Pigweed): 70%
- pest or weed control at 500 g/ha (pigweed; Amaranthus retroflexus, pre-emergence, 240 h, preemergence, 500 g ai/ha, 0 to 100 scale, read-out: Plant response rating, Pigweed): 80%
- Pigweed plant response rating (pigweed; [10]): 60
- Plant response rating, Ryegrass, Italian (ryegrass, Italian; [3]): 0
- Plant response rating, Ryegrass, Italian (ryegrass, Italian; [4]): 0
- Plant response rating, Ryegrass, Italian (ryegrass, Italian; [5]): 0
- Plant response rating, Ryegrass, Italian (ryegrass, Italian; [6]): 0
- Ryegrass, Italian plant response rating (ryegrass, Italian; [7]): 0
- Plant response rating, Ryegrass, Italian (ryegrass, Italian; [8]): 40
- Plant response rating, Ryegrass, Italian (ryegrass, Italian; [9]): 40
- Plant response rating (scale of 0 to 100), Ryegrass, Italian (ryegrass, Italian; Preemergence, 250 g ai/ha): 45
- Plant response rating, Rice (rice; 250 g ai/ha): 0
- Plant response rating, Johnsongrass (johnsongrass; [3]): 5
- Plant response rating, Johnsongrass (johnsongrass; [4]): 5
- Plant response rating, Johnsongrass (johnsongrass; [5]): 5
- Plant response rating, Johnsongrass (johnsongrass; [6]): 10
- Johnsongrass plant response rating (johnsongrass; [7]): 0
- Plant response rating, Johnsongrass (johnsongrass; [8]): 0
- Plant response rating, Johnsongrass (johnsongrass; [9]): 30
- Plant response rating (scale of 0 to 100), Johnsongrass (johnsongrass; Preemergence, 250 g ai/ha): 55
- Plant response rating, Ducksalad (ducksalad; 250 g ai/ha): 75
- Wheat plant response rating (wheat; [10]): 0
- plant injury at 125 g/ha (wheat; Triticum aestivum, post-emergence, 240 h, Postemergence, 125 g ai/ha, 0 to 100 scale, 0 no effect, 100 complete control, read-out: Plant response rating, Wheat): 40%
- plant injury at 500 g/ha (wheat; Triticum aestivum, post-emergence, 240 h, Postemergence, 500 g ai/ha, 0 to 100 scale (0 no effect, 100 complete control), read-out: Plant response rating, Wheat): 50%
- plant injury at 500 g/ha (wheat; Triticum aestivum, pre-emergence, 240 h, preemergence, 500 g ai/ha, 0 to 100 scale, read-out: Plant response rating, Wheat): 20%

SMILES: O=C1NCC(c2ccc(Cl)cc2)C1C(=O)Nc1cccc(F)c1F (centres unmarked) [Compound 218]
- Ragweed plant response rating (ragweed; [7]): 40
- Ragweed plant response rating (ragweed; [11]): 35
- Plant response rating, Ragweed (ragweed; [9]): 50
- Plant response rating (scale of 0 to 100), Ragweed (ragweed; Preemergence, 250 g ai/ha): 85
- Nutsedge, Yellow plant response rating (nutsedge, yellow; [7]): 0
- Nutsedge, Yellow plant response rating (nutsedge, yellow; [11]): 0
- Plant response rating, Nutsedge, Yellow (nutsedge, yellow; [9]): 0
- Plant response rating (scale of 0 to 100), Nutsedge, Yellow (nutsedge, yellow; Preemergence, 250 g ai/ha): 0
- Morningglory plant response rating (morningglory; [7]): 0
- Morningglory plant response rating (morningglory; [11]): 0
- Plant response rating, Morningglory (morningglory; [9]): 25
- Plant response rating (scale of 0 to 100), Morningglory (morningglory; Preemergence, 250 g ai/ha): 20
- Plant response rating, Corn (corn [1]; [12]): 20
- Corn plant response rating (0 to 100 scale, 0 is no effect, 100 is complete control) (corn [1]; Postemergence, 500 g ai/ha): 30
- Corn plant response rating (corn [2]; [7]): 0
- Corn plant response rating (corn [2]; [11]): 0
- Plant response rating, Corn (corn [2]; [9]): 0
- Plant response rating (scale of 0 to 100), Corn (corn [2]; Preemergence, 250 g ai/ha): 0
- Lambsquarters plant response rating (lambsquarters; [7]): 10
- Lambsquarters plant response rating (lambsquarters; [11]): 40
- Plant response rating, Lambsquarters (lambsquarters; [9]): 75
- Plant response rating (scale of 0 to 100), Lambsquarters (lambsquarters; Preemergence, 250 g ai/ha): 85
- Plant response rating, Pigweed (pigweed; 125 g ai/ha, visual rating, 0 to 100 scale, 0 no effect, 100 complete control, approximately 10 days, preemergence): 30
- Plant response rating, Pigweed (pigweed; [12]): 0
- Pigweed plant response rating (0 to 100 scale, 0 is no effect, 100 is complete control) (pigweed; Postemergence, 500 g ai/ha): 40
- Plant response rating, Pigweed (pigweed; preemergence, 500 g ai/ha, 0 to 100 scale, 0 is no effect and 100 is complete control): 70
- Ryegrass, Italian plant response rating (ryegrass, Italian; [7]): 0
- Ryegrass, Italian plant response rating (ryegrass, Italian; [11]): 0
- Plant response rating, Ryegrass, Italian (ryegrass, Italian; [9]): 0
- Plant response rating (scale of 0 to 100), Ryegrass, Italian (ryegrass, Italian; Preemergence, 250 g ai/ha): 50
- Plant response rating, Rice (rice; 500 g ai/ha): 0
- Johnsongrass plant response rating (johnsongrass; [7]): 0
- Johnsongrass plant response rating (johnsongrass; [11]): 10
- Plant response rating, Johnsongrass (johnsongrass; [9]): 15
- Plant response rating (scale of 0 to 100), Johnsongrass (johnsongrass; Preemergence, 250 g ai/ha): 40
- Plant response rating, Ducksalad (ducksalad; 500 g ai/ha): 100
- Plant response rating, Wheat (wheat; [12]): 20
- Wheat plant response rating (0 to 100 scale, 0 is no effect, 100 is complete control) (wheat; Postemergence, 500 g ai/ha): 50
